Counter-ions that a name gives are not always drawn.
Tested on: Acinetobacter baumannii ATCC17961
Experiment: Antimicrobial susceptibility testing: 90% growth inhibitory concentration (IC90) determination
Format: cell-based
Conditions: Acinetobacter baumannii ATCC17961; Iso-Sensitest broth; growth by OD 600 nm over 16 h; 35±2° C.; read-out: ATCC 17961 IC90
Method: The in vitro antimicrobial activity of the compounds was determined according to the following procedure:
The assay used a 10-points Iso-Sensitest broth medium to measure quantitatively the in vitro activity of the compounds against Acinetobacter baumannii ATCC17961.
Stock compounds in DMSO were serially twofold diluted (e.g. range from 50 to 0.097 μM final concentration) in 384 wells microtiter plates and inoculated with 49 μl the bacterial suspension in Iso-Sensitest medium to have a final cell concentration of ˜5×10^(5) CFU/ml in a final volume/well of 50 ul/well. Microtiter plates were incubated at 35±2° C.
Bacterial cell growth was determined with the measurement of optical density at λ=600 nm each 20 minutes over a time course of 16 h. Growth inhibition was calculated during the logarithmic growth of the bacterial cells with determination of the concentration inhibiting 50% (IC50) and 90% (IC90) of the growth.
Table 1 provides the […] growth inhibitory concentrations (IC90) in micromoles per liter of the compounds of present invention obtained against the strain Acinetobacter baumannii ATCC17961.

| Compound | IC90 [nM] |
| --- | --- |
| COc1ccc(-c2cnc(C(=O)Nc3ccc(C(=O)NCc4cnc(NC(=O)C5CC[N+](C)(C)CC5)s4)c(Cl)c3)n2C)c(F)c1F [Example A29, N-[5-[2-chloro-4-[[5-(2,3-difluoro-4-methoxy-phenyl)-1-methyl-imidazole-2-carbonyl]amino]benzoyl]amino]methyl]thiazol-2-yl]-1,1-dimethyl-piperidin-1-ium-4-carboxamide; formate] | 170 |
| COc1ccc(-c2cnc(C(=O)Nc3ccc(C(=O)NCc4cnc(NC(=O)C5CC[N+](C)(CC(N)=O)CC5)s4)c(Cl)c3)n2C)c(F)c1F (stereo not shown) [Example A30, 1-(2-amino-2-oxo-ethyl)-N-[5-[[[2-chloro-4-[[5-(2,3-difluoro-4-methoxy-phenyl)-1-methyl-imidazole-2-carbonyl]amino]benzoyl]amino]methyl]thiazol-2-yl]-1-methyl-piperidin-1-ium-4-carboxamide; formate] | 140 |
| COc1ccc(-c2cnc(C(=O)Nc3ccc(C(=O)N4CCC(C(=O)NCc5cnc(NC(=O)C6CC[N+](C)(C)CC6)s5)CC4)c(Cl)c3)n2C)c(F)c1F [Example A31, N-[5-[[1-[2-chloro-4-[[5-(2,3-difluoro-4-methoxy-phenyl)-1-methyl-imidazole-2-carbonyl]amino]benzoyl]piperidine-4-carbonyl]amino]methyl]thiazol-2-yl]-1,1-dimethyl-piperidin-1-ium-4-carboxamide; formate] | 170 |
| COc1ccc(-c2cnc(C(=O)Nc3ccc(C(=O)N4CCN(C(=O)C[N+](C)(C)CC(N)=O)CC4)c(C)c3)n2C)c(F)c1F [Example B1, (2-Amino-2-oxo-ethyl)-[2-[4-[4-[[5-(2,3-difluoro-4-methoxy-phenyl)-1-methyl-imidazole-2-carbonyl]amino]-2-methyl-benzoyl]piperazin-1-yl]-2-oxo-ethyl]-dimethyl-ammonium;formate] | 280 |
| Cc1cc(NC(=O)c2ncc(-c3ccc(OCC#N)c(F)c3F)n2C)ccc1C(=O)N1CCN(C(=O)C[N+](C)(C)CC(N)=O)CC1 [Example B2, (2-amino-2-oxo-ethyl)-[2-[4-[4-[[5-[4-(cyanomethoxy)-2,3-difluoro-phenyl]-1-methyl-imidazole-2-carbonyl]amino]-2-methyl-benzoyl]piperazin-1-yl]-2-oxo-ethyl]-dimethyl-mmonium; formate] | 230 |
| COc1ccc(-c2cnc(C(=O)Nc3ccc(C(=O)N4CCN(C(=O)CC[N+](C)(C)CC(N)=O)CC4)c(C)c3)n2C)c(F)c1F [Example B3, (2-amino-2-oxo-ethyl)-[3-[4-[4-[[5-(2,3-difluoro-4-methoxy-phenyl)-1-methyl-imidazole-2-carbonyl]amino]-2-methyl-benzoyl]piperazin-1-yl]-3-oxo-propyl]-dimethyl-ammonium; 2,2,2-trifluoroacetate] | 190 |
| Cn1c(-c2ccc(OCC#N)c(F)c2F)cnc1C(=O)Nc1ccc(C(=O)N2CCN(C(=O)C[N+](C)(C)CC(N)=O)CC2)c(Cl)c1 [Example B4, (2-amino-2-oxo-ethyl)-[2-[4-[2-chloro-4-[[5-[4-(cyanomethoxy)-2,3-difluoro-phenyl]-1-methyl-imidazole-2-carbonyl]amino]benzoyl]piperazin-1-yl]-2-oxo-ethyl]-dimethyl-ammonium; formate] | 110 |
| COc1ccc(-c2cnc(C(=O)Nc3ccc(C(=O)N4CCC(NC(=O)C[N+](C)(C)CC(N)=O)CC4)c(Cl)c3)n2C)c(F)c1F [Example B5, (2-amino-2-oxo-ethyl)-[2-[1-[2-chloro-4-[5-(2,3-difluoro-4-methoxy-phenyl)-1-methyl-imidazole-2-carbonyl]amino]benzoyl]-4-piperidyl]amino]-2-oxo-ethyl]-dimethyl-ammonium; formate] | 120 |
| COc1ccc(-c2cnc(C(=O)Nc3ccc(C(=O)NC4CN(C(=O)C[N+](C)(C)CC(N)=O)C4)c(Cl)c3)n2C)c(F)c1F [Example B6, (2-amino-2-oxo-ethyl)-[2-[3-[[2-chloro-4-[[5-(2,3-difluoro-4-methoxy-phenyl)-1-methyl-imidazole-2-carbonyl]amino]benzoyl]aminoJazetidin-1-yl]-2-oxo-ethyl]-dimethyl-ammonium; formate] | 290 |
| COc1ccc(-c2cnc(C(=O)Nc3ccc(C(=O)N4CCN(C(=O)C[N+](C)(C)CC(N)=O)CC4)c(Cl)c3)n2C)c(F)c1F [Example B7, (2-amino-2-oxo-ethyl)-[2-[4-[2-chloro-4-[[5-(2,3-difluoro-4-methoxy-phenyl)-1-methyl-imidazole-2-carbonyl]amino]benzoyl]piperazin-1-yl]-2-oxo-ethyl]-dimethyl-ammonium; formate] | 99 |
| COc1ccc(-c2cnc(C(=O)Nc3ccc(C(=O)N4CCN(C(=O)CC[N+](C)(C)C)CC4)c(C)c3)n2C)c(F)c1F [Example B8, [3-[4-[4-[[5-(2,3-Difluoro-4-methoxy-phenyl)-1-methyl-imidazole-2-carbonyl]amino]-2-methyl-benzoyl]piperazin-1-yl]-3-oxo-propyl]-trimethyl-ammonium;2,2,2-trifluoroacetate] | 180 |
| Cn1c(-c2ccc(OCC#N)c(F)c2F)cnc1C(=O)Nc1ccc(C(=O)N2CCN(C(=O)CC[N+](C)(C)C)CC2)c(Cl)c1 [Example B9, [3-[4-[2-chloro-4-[[5-[4-(cyanomethoxy)-2,3-difluoro-phenyl]-1-methyl-imidazole-2-carbonyl]amino]benzoyl]piperazin-1-yl]-3-oxo-propyl]-trimethyl-ammonium; iodide] | 56 |
| COc1ccc(-c2cnc(C(=O)Nc3ccc(C(=O)N4CCN(C(=O)C5CC[N+](C)(C)CC5)CC4)c(Cl)c3)n2C)c(F)c1F [Example B10, N-[3-chloro-4-[4-(1,1-dimethylpiperidin-1-ium-4-carbonyl)piperazine-1-carbonyl]phenyl]-5-(2,3-difluoro-4-methoxy-phenyl)-1-methyl-imidazole-2-carboxamide; formate] | 75 |
| Cn1c(-c2ccc(OC(F)F)cc2F)cnc1C(=O)Nc1ccc(C(=O)N2CCN(C(=O)C[N+](C)(C)C)CC2)c(Cl)c1 [Example B11, [2-[4-[2-chloro-4-[5-[4-(difluoromethoxy)-2-fluoro-phenyl]-1-methyl-imidazole-2-carbonyl]amino]benzoyl]piperazin-1-yl]-2-oxo-ethyl]-trimethyl-ammonium; formate] | 150 |
| Cn1c(-c2ccc(OC(F)F)c(F)c2F)cnc1C(=O)Nc1ccc(C(=O)N2CCN(C(=O)C[N+](C)(C)C)CC2)c(Cl)c1 [Example B12, [2-[4-[2-chloro-4-[[5-[4-(difluoromethoxy)-2,3-difluoro-phenyl]-1-methyl-imidazole-2-carbonyl]amino]benzoyl]piperazin-1-yl]-2-oxo-ethyl]-trimethyl-ammonium; formate] | 51 |
| COc1ccc(-c2cnc(C(=O)Nc3ccc(C(=O)N4CCN(C(=O)CC5CC[N+](C)(C)C5)CC4)c(Cl)c3)n2C)c(F)c1F (stereo not shown) [Example B13, N-[3-chloro-4-[4-[2-(1,1-dimethylpyrrolidin-1-ium-3-yl)acetyl]piperazine-1-carbonyl]phenyl]-5-(2,3-difluoro-4-methoxy-phenyl)-1-methyl-imidazole-2-carboxamide; formate] | 68 |

Source: US20240376073A1 (Hoffmann-La Roche Inc., priority 2021, published 2024)
